Assay results published in patent publication US20080063668A1, “Nitroimidazole and terconazole composition and method” (priority 2006, published 2008).
Each block holds one compound with its values, some of them ahead of it.

Columns and labels:
[1] = tested on: Mobiluncus curtisii var. curtisii ATCC 35241; assay: Inhibition of bacteria growth, drug dilution tubes, anaerobic; type: cell-based; design: key: (+) for growth; (−) for no growth; (±) for suboptimal growth after an initial observation of growth
Procedure: Serial dilutions of tinidazole and terconazole were prepared by adding measured amounts of each substance to water (both individually and in combination). Seven bacterial organisms that are common pathogens in bacterial vaginosis were grown anaerobically in the medium as listed in Table 4 under a N2/H2/CO2 (85:5:10) head space atmosphere. [table] These cultures were diluted to a 0.5 McFarland standard prior to inoculation of drug dilution tubes. One (1) mL of the 0.5 McFarland preparation was inoculated to an anaerobically prepared test tube containing 0.8 mL of Difco anaerobic medium (DAMM) and 0.2 mL of appropriate diluted antimicrobial or antimicrobial combination for a total of 2 mL. The inoculated tubes were then incubated at 37° C. and monitored daily for growth. Growth was scored with a (+) for growth, (−) for no growth, and (±) for suboptimal growth after an initial observation of growth. Tinidazole is abbreviated as TNZ and terconazole is abbreviated as TER in Tables 5 through 11.

[2] = neutral pH; cited from earlier work
[3] = Solubilization of tinidazole in water with acid (crystal observation); type: physicochemical; conditions: 20° C., at least 14 days
Procedure: Weighed amounts of tinidazole were added to separate containers including an acid in water, applying heat, if necessary, to dissolve the tinidazole. The amount of acid was selected to be about equimolar with the amount of tinidazole added. After the tinidazole was dissolved, each solution was cooled to about 2° C. to force crystallization of some of the tinidazole. If crystals were not observed upon cooling, seed crystals of tinidazole were added. After crystal formation was observed, the solutions were allowed to warm to room temperature (about 20° C.). […] The absence of crystals after 14 days indicates effective dissolution of tinidazole. Table 1 includes dissolution data for a number of compositions comprising varying amounts of tinidazole and various acids. The data in Table 1 clearly indicate that solutions having a tinidazole concentration of at least about 0.5 percent by weight and free from tinidazole crystals at 20° C. were obtained utilizing citric acid, hydrochloric acid, acetic acid, tartaric acid, and malic acid. Tinidazole concentrations as high as about 0.55 percent by weight were obtained utilizing tartaric acid and citric acid.

[4] = Combined solubilization of tinidazole and terconazole in water with citric acid; type: physicochemical; conditions: 20° C., terconazole about 0.8 percent by weight
Procedure: Weighed amounts of tinidazole and terconazole were added to separate containers including citric acid in water, applying heat, if necessary, to dissolve the tinidazole and terconazole. The amount of citric acid was selected to be about equimolar with the molar amount of tinidazole and terconazole added. After the tinidazole and terconazole was dissolved, each solution was cooled to about 4° C. to force crystallization of the tinidazole and terconazole. If crystals were not observed upon cooling, seed crystals of tinidazole were added and the solutions were again cooled to about 4° C. […] The absence of crystals after 14 days indicates effective dissolution of tinidazole and terconazole. Table 3 includes dissolution data for a number of compositions comprising varying amounts of tinidazole, terconazole and citric acid. The data in Table 3 clearly indicate that solutions having a tinidazole concentration of at least about 0.6 percent by weight and a terconazole concentration of about 0.8 percent by weight and free from crystals at 20° C. were obtained utilizing citric acid.

[5] = Solubilization of terconazole in water with acid (crystal observation); type: physicochemical
Procedure: Weighed amounts of terconazole were added to separate containers including an acid in water, applying heat, if necessary, to dissolve the terconazole. The amount of acid was selected to be about equimolar with the amount of terconazole added. After the terconazole was dissolved, each solution was cooled to about 4° C. to force crystallization of the terconazole. If crystals were not observed upon cooling, seed crystals of terconazole were then added and the solutions were again cooled to about 4° C. for about 72 hours. After allowing for crystal formation in all solutions, the solutions were allowed to warm to room temperature (about 20° C.).
Table 2 includes dissolution data for a number of compositions comprising varying amounts of terconazole and various acids. The data in Table 2 clearly indicate that solutions having a terconazole concentration of at least about 3 percent by weight and free from terconazole crystals at 20° C. were obtained utilizing tartaric acid and malic acid.

tinidazole concentration of solutions free from tinidazole crystals ([3]; citric acid, hydrochloric acid, acetic acid, tartaric acid, and malic acid, about equimolar): at least 0.5 percent by weight
tinidazole concentration of solutions free from tinidazole crystals ([3]; tartaric acid and citric acid): about 0.55 percent by weight
tinidazole concentration of solutions free from crystals [4]: at least 0.6 percent by weight
SMILES: CCS(=O)(=O)CCn1c([N+](=O)[O-])cnc1C [TNZ, 1-[2-(ethylsulfonyl)ethyl]-2-methyl-5-nitroimidazole]
growth ([1]; TNZ 2 μg/ml, DAY 1): (+)
growth ([1]; TNZ 2 μg/ml, DAY 2): (+)
growth ([1]; TNZ 2 μg/ml, DAY 3): (+)
growth ([1]; TNZ 2 μg/ml, DAY 4): (+)
growth ([1]; TNZ 2 μg/ml, DAY 5): (+)
growth ([1]; TNZ 3.9 μg/ml, DAY 1): (+)
growth ([1]; TNZ 3.9 μg/ml, DAY 2): (+)
growth ([1]; TNZ 3.9 μg/ml, DAY 3): (+)
growth ([1]; TNZ 3.9 μg/ml, DAY 4): (+)
growth ([1]; TNZ 3.9 μg/ml, DAY 5): (+)
growth ([1]; TNZ 7.8 μg/ml, DAY 1): (+)
growth ([1]; TNZ 7.8 μg/ml, DAY 2): (+)
growth ([1]; TNZ 7.8 μg/ml, DAY 3): (+)
growth ([1]; TNZ 7.8 μg/ml, DAY 4): (+)
growth ([1]; TNZ 7.8 μg/ml, DAY 5): (+)
growth ([1]; TNZ 15.6 μg/ml, DAY 1): (+)
growth ([1]; TNZ 15.6 μg/ml, DAY 2): (+)
growth ([1]; TNZ 15.6 μg/ml, DAY 3): (+)
growth ([1]; TNZ 15.6 μg/ml, DAY 4): (+)
growth ([1]; TNZ 15.6 μg/ml, DAY 5): (+)
growth ([1]; TNZ 31.3 μg/ml, DAY 1): (+)
growth ([1]; TNZ 31.3 μg/ml, DAY 2): (+)
growth ([1]; TNZ 31.3 μg/ml, DAY 3): (+)
growth ([1]; TNZ 31.3 μg/ml, DAY 4): (+)
growth ([1]; TNZ 31.3 μg/ml, DAY 5): (+)
growth ([1]; TNZ 62.5 μg/ml, DAY 1): (+)
growth ([1]; TNZ 62.5 μg/ml, DAY 2): (+)
growth ([1]; TNZ 62.5 μg/ml, DAY 3): (+)
growth ([1]; TNZ 62.5 μg/ml, DAY 4): (+)
growth ([1]; TNZ 62.5 μg/ml, DAY 5): (+)
growth ([1]; TNZ 125 μg/ml, DAY 1): (+)
growth ([1]; TNZ 125 μg/ml, DAY 2): (+)
growth ([1]; TNZ 125 μg/ml, DAY 3): (+)
growth ([1]; TNZ 125 μg/ml, DAY 4): (+)
growth ([1]; TNZ 125 μg/ml, DAY 5): (+)
growth ([1]; TNZ 250 μg/ml, DAY 1): (−)
growth ([1]; TNZ 250 μg/ml, DAY 2): (+)
growth ([1]; TNZ 250 μg/ml, DAY 3): (+)
growth ([1]; TNZ 250 μg/ml, DAY 4): (+)
growth ([1]; TNZ 250 μg/ml, DAY 5): (+)
growth ([1]; TNZ 500 μg/ml, DAY 1): (−)
growth ([1]; TNZ 500 μg/ml, DAY 2): (−)
growth ([1]; TNZ 500 μg/ml, DAY 3): (−)
growth ([1]; TNZ 500 μg/ml, DAY 4): (−)
growth ([1]; TNZ 500 μg/ml, DAY 5): (+)
solubility in water [2]: about 0.45 percent by weight

terconazole concentration of solutions free from terconazole crystals ([5]; 20° C., about 14 days, tartaric acid and malic acid): at least 3 percent by weight
terconazole solubilized ([5]; citric acid, separate study): 2.4 percent by weight
SMILES: CC(C)N1CCN(c2ccc(OCC3COC(Cn4cncn4)(c4ccc(Cl)cc4Cl)O3)cc2)CC1 (stereo not drawn) [TER, cis-1-[p[[2-(2,4-dichlorophenyl)-2-(1 H-1,2,4-triazol-1-ylmethyl)-1,3-dioxolan-4-yl]methoxy]phenyl]-4-isopropylpiperazine]
growth ([1]; TER 3.1 μg/ml, DAY 1): (+)
growth ([1]; TER 3.1 μg/ml, DAY 2): (+)
growth ([1]; TER 3.1 μg/ml, DAY 3): (+)
growth ([1]; TER 3.1 μg/ml, DAY 4): (+)
growth ([1]; TER 3.1 μg/ml, DAY 5): (+)
growth ([1]; TER 6.2 μg/ml, DAY 1): (+)
growth ([1]; TER 6.2 μg/ml, DAY 2): (+)
growth ([1]; TER 6.2 μg/ml, DAY 3): (+)
growth ([1]; TER 6.2 μg/ml, DAY 4): (+)
growth ([1]; TER 6.2 μg/ml, DAY 5): (+)
growth ([1]; TER 12.5 μg/ml, DAY 1): (+)
growth ([1]; TER 12.5 μg/ml, DAY 2): (+)
growth ([1]; TER 12.5 μg/ml, DAY 3): (+)
growth ([1]; TER 12.5 μg/ml, DAY 4): (+)
growth ([1]; TER 12.5 μg/ml, DAY 5): (+)
growth ([1]; TER 25 μg/ml, DAY 1): (+)
growth ([1]; TER 25 μg/ml, DAY 2): (+)
growth ([1]; TER 25 μg/ml, DAY 3): (+)
growth ([1]; TER 25 μg/ml, DAY 4): (+)
growth ([1]; TER 25 μg/ml, DAY 5): (+)
growth ([1]; TER 50 μg/ml, DAY 1): (+)
growth ([1]; TER 50 μg/ml, DAY 2): (+)
growth ([1]; TER 50 μg/ml, DAY 3): (+)
growth ([1]; TER 50 μg/ml, DAY 4): (+)
growth ([1]; TER 50 μg/ml, DAY 5): (+)
growth ([1]; TER 100 μg/ml, DAY 1): (+)
growth ([1]; TER 100 μg/ml, DAY 2): (+)
growth ([1]; TER 100 μg/ml, DAY 3): (+)
growth ([1]; TER 100 μg/ml, DAY 4): (+)
growth ([1]; TER 100 μg/ml, DAY 5): (+)
growth ([1]; TER 200 μg/ml, DAY 1): (−)
growth ([1]; TER 200 μg/ml, DAY 2): (+)
growth ([1]; TER 200 μg/ml, DAY 5): (+)
growth ([1]; TER 400 μg/ml, DAY 1): (−)
growth ([1]; TER 400 μg/ml, DAY 2): (−)
growth ([1]; TER 400 μg/ml, DAY 3): (−)
growth ([1]; TER 400 μg/ml, DAY 4): (−)
growth ([1]; TER 400 μg/ml, DAY 5): (+)
growth ([1]; TER 800 μg/ml, DAY 1): (−)
growth ([1]; TER 800 μg/ml, DAY 2): (−)
growth ([1]; TER 800 μg/ml, DAY 3): (−)
growth ([1]; TER 800 μg/ml, DAY 4): (−)
growth ([1]; TER 800 μg/ml, DAY 5): (+)
solubility in water (in words) [2]: substantially insoluble
